Entries after “also recorded” stand apart in the source; their conditions may differ.
How the values were obtained:
[1] = tested on: P388 Lymphocytic leukemia; experiment: Experiment 11: P388 i.p., 10^6 cells, saline with Tween-80, female; type: in vivo, Mouse CD2 F1 (CDF1)
Excerpt: (§1) Host: Mouse CD2 F1 (CDF1)
Tumor: P388 Lymphocytic leukemia
(§2) Inoculum Site: Intraperitoneal
(§3) Vehicle: Saline with Tween-80
(§4) Treatment schedule (relative to tumor inoculation day): daily on days 1-9
(§5) Day of evaluation (relative to tumor inoculation day): 30
(§6) Parameter: Median survival time (MST) in days
(§7) NCI minimal activity criteria: Percent T/C≥120
(§8) Percent T/C: Ratio of test (T) evaluation to control (C) evaluation expressed as a percentage

CD8F1 mammary tumor = experiment: NCI screen, CD8F1 mammary tumor, subcutaneous (summary); type: in vivo, Mouse; settings: for Antitumor activity in words: CD8F1 mammary
Excerpt: (§9) The activity of the compound has been evaluated by experiments carried out under the auspices of the Division of Cancer Treatment, National Cancer Institute, employing techniques considered to be reliable indicators of chemotherapeutic utility in the treatment of forms of cancer in human patients. The details of the methodology employed in the reported experiments may be determined with reference to established NCI screening methods. In the experiments conducted by the NCI, evaluation of activity is made on the basis of appropriate parameters, such as median survival time (MST) or change in average tumor diameter (CATD)in ocular micrometer units (OMU).

B16 Melanocarcinoma [2] = experiment: NCI screen, B16 Melanocarcinoma, intraperitoneal (summary); type: in vivo, Mouse; settings: for Antitumor activity in words: B16
Excerpt: The activity of the compound has been evaluated by experiments carried out under the auspices of the Division of Cancer Treatment, National Cancer Institute, employing techniques considered to be reliable indicators of chemotherapeutic utility in the treatment of forms of cancer in human patients. The details of the methodology employed in the reported experiments may be determined with reference to established NCI screening methods.
In the experiments conducted by the NCI, evaluation of activity is made on the basis of appropriate parameters, such as median survival time (MST) or change in average tumor diameter (CATD)in ocular micrometer units (OMU).

canine whole blood = experiment: Hemolytic potential testing, canine whole blood; settings: 50 mg/ml
Procedure: Therefore, a concentration of 12.5 mg/ml was used in the dog studies.

B16 Melanocarcinoma [3] = experiment: Experiment 18: B16 i.p., saline with Tween-80, male; type: in vivo, Mouse B6 C3 F1
Excerpt: (§10) Tumor: B16 Melanocarcinoma
as §2
(§11) Tissue: Homogenate (or brei), tumor
as §3, §4
(§12) Day of evaluation (relative to tumor inoculation day): 60
as §6
(§13) NCI minimal activity criteria: Percent T/C≥125
as §8

L-1210 Lymphoid leukemia = experiment: Experiment 5: L-1210 i.p., 10^5 cells, acid diluted with saline, female; type: in vivo, Mouse CD2 F1 (CDF1)
Excerpt: as §1
Tumor: L-1210 Lymphoid leukemia
as §2
Vehicle: Acid diluted with saline
as §4, §5, §6, §13, §8

B16 Melanocarcinoma [4] = experiment: Experiment 16: B16 i.p., saline with Tween-80, male; type: in vivo, Mouse B6 C3 F1
Excerpt: as §10, §2, §11, §3, §4, §12, §6, §13, §8

[5] = tested on: P 388 Lymphocytic leukemia; experiment: Experiment 10: P388 i.p., 10^6 cells, saline with Tween-80, male; type: in vivo, Mouse CD2F1 (CDF1)
Excerpt: Tumor: P 388 Lymphocytic leukemia
as §2, §3, §4, §5, §6, §7, §8

Lewis lung carcinoma = experiment: NCI screen, Lewis lung carcinoma, intravenous (summary); type: in vivo, Mouse; settings: for Antitumor activity in words: Lewis lung carcinoma
Excerpt: as §9

beagle dogs = settings: dog, in vivo
Excerpt: To determine the source of the color, the following analyses were done: HPLC and TLC (for drug); routine urinalyses, orthotolidine reagent strip and sulfosalicylic acid/ammonium sulfate precipitation tests (for occult blood).

Fischer 344 rats = experiment: Single dose rat toxicity study; type: in vivo; settings: for toxicity summary, rats: single dose i.v. (X1)
Procedure: Preclinical toxicity studies of BIDA were completed in CD2F1 Mice, Fischer 344 rats and beagle dogs (4). The animals were injected IV with a single bolus or daily for five days.
A preclinical toxicology study of benzisoquinolinedione (NSC-308847) was done at Springborn Institute for Bioresearch, Inc. using CD2 F1 mice, Fischer 344 rats and beagle dogs. Animals were injected intravenously on a single dose (X1) or five daily dose (X5) regimen. Bulk drug was titrated with 0.5N HCl to form a salt solution of benzisoquinolinedione at a pH of 5.0-6.5. Sterile 0.9% saline was used for diluting the dosing solutions and was used for the vehicle control animals.
The following summarizes the major organ toxicities resulting from IV administration of benzisoquinolinedione to rats.

[6] = 15.0 mg/kg, listed as benzisoquinolinedione

SMILES: CN(C)CCN1C(=O)c2cccc3cc(N)cc(c23)C1=O [Example 9, 1H-Benz[de]isoquinoline-1,3(2H)-dione, 5-amino-2-[2-(dimethylamino)ethyl]]
- Median survival time (MST) ([1]; 8.00 mg/kg i.p.): 17.0 days
- Percent T/C ([1]; 8.00 mg/kg i.p.): 144%
- Median survival time (MST) ([1]; 16.00 mg/kg i.p.): 21.0 days
- Percent T/C ([1]; 16.00 mg/kg i.p.): 177%
- Median survival time (MST) ([1]; 32.00 mg/kg i.p.): 7.3 days
- Median survival time (MST) ([1]; 65.00 mg/kg i.p.): 6.4 days
- Antitumor activity in words (CD8F1 mammary tumor; listed as BIDA): not active
- Antitumor activity in words (CD8F1 mammary tumor; listed as the compound): not observed to be effective
- Table II evaluation (CD8F1 mammary tumor; change in median tumor weight, 15 tests, full wrapped cell: Activity not confirmed): Activity not
- increased life spans (B16 Melanocarcinoma [2]; 16 mg/kg i.p. days 1-9, three experiments): 37-55%
- Antitumor activity in words (B16 Melanocarcinoma [2]; listed as BIDA): Activity was seen
- Antitumor activity in words (B16 Melanocarcinoma [2]; listed as the compound): at least a reproducible minimal activity; also recorded: active
- Table II evaluation (B16 Melanocarcinoma [2]; median survival time, 28 tests, full wrapped cell: Reproducible minimal activity): Reproducible minimal
- hemolysis (canine whole blood; 1:1 drug to blood): hemolysis
- hemolysis (canine whole blood; 1:2): Slight hemolysis
- hemolysis (canine whole blood; 1:4): none
- Median survival time (MST) (B16 Melanocarcinoma [3]; 4.00 mg/kg i.p.): 22.0 days
- Percent T/C (B16 Melanocarcinoma [3]; 4.00 mg/kg i.p.): 113%
- Median survival time (MST) (B16 Melanocarcinoma [3]; 8.00 mg/kg i.p.): 23.2 days
- Percent T/C (B16 Melanocarcinoma [3]; 8.00 mg/kg i.p.): 120%
- Median survival time (MST) (B16 Melanocarcinoma [3]; 16.00 mg/kg i.p.): 27.0 days
- Percent T/C (B16 Melanocarcinoma [3]; 16.00 mg/kg i.p.): 139%
- Median survival time (MST) (B16 Melanocarcinoma [3]; 32.00 mg/kg i.p.): 6.3 days
- Median survival time (MST) (L-1210 Lymphoid leukemia; 5.00 mg/kg i.p.): 11.0 days
- Percent T/C (L-1210 Lymphoid leukemia; 5.00 mg/kg i.p.): 113%
- Median survival time (MST) (L-1210 Lymphoid leukemia; 7.00 mg/kg i.p.): 11.1 days
- Percent T/C (L-1210 Lymphoid leukemia; 7.00 mg/kg i.p.): 114%
- Median survival time (MST) (L-1210 Lymphoid leukemia; 10.00 mg/kg i.p.): 11.4 days
- Percent T/C (L-1210 Lymphoid leukemia; 10.00 mg/kg i.p.): 117%
- Median survival time (MST) (L-1210 Lymphoid leukemia; 16.00 mg/kg i.p.): 17.0 days
- Percent T/C (L-1210 Lymphoid leukemia; 16.00 mg/kg i.p.): 175%
- Median survival time (MST) (L-1210 Lymphoid leukemia; 24.00 mg/kg i.p.): 13.3 days
- Percent T/C (L-1210 Lymphoid leukemia; 24.00 mg/kg i.p.): 137%
- Median survival time (MST) (B16 Melanocarcinoma [4]; 1.00 mg/kg i.p.): 17.6 days
- Percent T/C (B16 Melanocarcinoma [4]; 1.00 mg/kg i.p.): 102%
- Median survival time (MST) (B16 Melanocarcinoma [4]; 2.00 mg/kg i.p.): 17.3 days
- Percent T/C (B16 Melanocarcinoma [4]; 2.00 mg/kg i.p.): 101%
- Median survival time (MST) (B16 Melanocarcinoma [4]; 4.00 mg/kg i.p.): 19.3 days
- Percent T/C (B16 Melanocarcinoma [4]; 4.00 mg/kg i.p.): 112%
- Median survival time (MST) (B16 Melanocarcinoma [4]; 8.00 mg/kg i.p.): 20.3 days
- Percent T/C (B16 Melanocarcinoma [4]; 8.00 mg/kg i.p.): 118%
- Median survival time (MST) (B16 Melanocarcinoma [4]; 16.00 mg/kg i.p.): 35.0 days
- Percent T/C (B16 Melanocarcinoma [4]; 16.00 mg/kg i.p.): 87%
- Median survival time (MST) (B16 Melanocarcinoma [4]; 32.00 mg/kg i.p.): 8.3 days
- Median survival time (MST) ([5]; 2.00 mg/kg i.p.): 13.3 days
- Percent T/C ([5]; 2.00 mg/kg i.p.): 135%
- Median survival time (MST) ([5]; 4.00 mg/kg i.p.): 14.0 days
- Percent T/C ([5]; 4.00 mg/kg i.p.): 142%
- Median survival time (MST) ([5]; 8.00 mg/kg i.p.): 17.3 days
- Percent T/C ([5]; 8.00 mg/kg i.p.): 176%
- Median survival time (MST) ([5]; 16.00 mg/kg i.p.): 13.0 days
- Percent T/C ([5]; 16.00 mg/kg i.p.): 132%
- Median survival time (MST) ([5]; 32.00 mg/kg i.p.): 6.1 days
- Antitumor activity in words (Lewis lung carcinoma; listed as BIDA): not active
- Antitumor activity in words (Lewis lung carcinoma; listed as the compound): not observed to be effective
- Table II evaluation (Lewis lung carcinoma; median survival time, 12 tests, full wrapped cell: Activity not confirmed): Activity not
- blood in urine (beagle dogs): the presence of blood was negligible
- Mortality / lethality (Fischer 344 rats; 15.0 mg/kg (1/2MELD10), single): 0/20
- Hematologic findings (Fischer 344 rats; [6]): Mild decreases in leukocytes were seen in males on day 4; also recorded: mild decreases in reticulocytes were seen in females
- Microscopic hematologic lesions (Fischer 344 rats; [6]): mild diffuse thymic atrophy in three male rats on day 4; also recorded: No hematologic lesions were seen in either sex on day 29
- Microscopic hematologic lesions (Fischer 344 rats; 30.0 mg/kg, day 4 and day 29, listed as benzisoquinolinedione): moderate to marked diffuse bone marrow atrophy and mild to moderate diffuse thymic atrophy; also recorded: by day 29, no hematologic lesions were found
- Reproductive findings (Fischer 344 rats; 30.0 mg/kg, day 29): All five long-term male rats showed decreased testicular weights
- Hematologic findings (Fischer 344 rats; 30.0 mg/kg, listed as benzisoquinolinedione): Mild decreases in hemoglobin, hematocrit and red blood cells were seen in females on days 4 and 8, but not in males; also recorded: moderate decreases in reticulocytes and leukocytes on day 4 with moderate increases following on day 8
- mild diffuse testicular atrophy, incidence (Fischer 344 rats; 30.0 mg/kg, males, day 29): four of five
- Mortality / lethality (Fischer 344 rats; 35.0 mg/kg (MELD50), single): 0/20
- Microscopic hematologic lesions (Fischer 344 rats; 35.0 mg/kg, day 4): marked to severe diffuse bone marrow atrophy and mild to moderate diffuse thymic atrophy
- Reproductive findings (Fischer 344 rats; 35.0 mg/kg, day 29, listed as benzisoquinolinedione): All five male rats showed decreased testicular weights and mild diffuse testicular atrophy; also recorded: No reproductive lesions were seen in females
- Hematologic findings (Fischer 344 rats; 35.0 mg/kg, listed as benzisoquinolinedione): Mild decreases in hemoglobin, hematocrit and red blood cells; also recorded: moderate decreases in reticulocytes in both sexes on day 4, followed by moderate increases on day 8; also recorded: Leukopenia (both lymphocytes and neutrophils); also recorded: Both sexes were comparable to controls on days 22 and 29
- Mortality / lethality (Fischer 344 rats; MELD10, single, 30.0 mg/kg in text, 20.00 in Table 4): 0/20
- toxicity summary, rats (Fischer 344 rats; listed as BIDA): reproductive system toxicity was seen at doses of MELD 10 and higher; also recorded: decreased testicular weights and mild diffuse testicular atrophy
- toxicity summary, rats (Fischer 344 rats; listed as benzisoquinolinedione): toxic on both schedules (X1, X5) to the hematopoietic system and to the male reproductive system

Reference: patent US5183821A, “Method for treating leukemias using N-(2-dimethylaminoethyl)-3-amino-1,8-naphthalimide for treating leukemias and solid tumors” (priority 1991, dated 1993)
